Measurements from article PMC8510478, “Characterization and Identification of Bioactive Polyphenols in the Trapa bispinosa Roxb. Pericarp Extract” (Molecules, 2021).
Counter-ions that a name gives are not always drawn. Like-named read-outs stand apart in the source and are kept apart here.

How the values were obtained:
[1] = molecular target: α-glucosidase; test: α-Glucosidase inhibitory activity (rat intestinal acetone powder, maltose substrate); type: biochemical; conditions: for IC50: maltose, pH 7, 37 °C, means ± SE (n = 3), read-out: Inhibitory Effects on α-Glucosidase Activity IC50
Experimental: The α-glucosidase inhibitory activity was tested according to the previously described method by Kirino et al. with a slight modification. Rat intestinal acetone powder was mixed with 0.1 M phosphate buffer (pH 7) and centrifuged at 18,500× g and 4 °C for 20 min. The resulting supernatant was collected and used as a glucosidase solution for enzymatic assay. Each sample solution (160 μL) was mixed with 250 mM maltose solution (20 μL) in 0.2 M phosphate buffer (pH 7) and then incubated at 37 °C for 3 min. After incubation, the enzymatic reaction was started by adding glucosidase solution from the rat intestine (20 μL) and the resulting reaction mixtures were further incubated at 37 °C for 15 min. After 15 min, the reaction mixtures were immediately heated at 100 °C for 5 min to stop the reaction followed by cooling on ice for 5 min. The amount of glucose in the reaction mixtures was determined using the F-Kit glucose (Roche diagnostics, Co., Tokyo, Japan) by measuring the absorbance at 340 nm. A control was carried out with 0.1 M phosphate buffer (pH 7) instead of sample solution. For the blank, the glucosidase solution was replaced with distilled water. The glucosidase inhibitory rates of tested samples were calculated as; Inhibitory rate (%) = 100 − [(Asample − Ablank)/(Acontrol − Ablank)] × 100(1) where Asample, Acontrol, and Ablank is the absorbance of the tested sample, control, and blank, respectively. The experimental data are represented as IC50 (μM) values.

[2] = AGE-derived crosslink-cleaving effect (PPD cleavage to benzoic acid, HPLC); conditions: for Crosslink-Cleaving Activities Relative Ratio: tested samples 100 μg/mL, relative to PTB = 100, means ± SE (n = 3); for AGE cross-link cleaving activity (in words): compared with positive control PTB
Experimental: The AGE crosslink-cleaving activity of the same samples was evaluated according to the previously described method by Kato et al. with a slight modification. Briefly, the 1 mg/mL of tested samples prepared with H2O were mixed with 1.13 mM PPD solution in MeOH:50 mM phosphate buffer (pH 7.4) (1:1) and incubated at 37 °C for 4 h. After 4 h, the reaction was stopped with 200 μL of 2 M HCl, then the stopped reaction mixtures were centrifuged at 8200× g for 5 min. The amount of benzoic acid in the supernatant was measured by reversed-phase HPLC. The following conditions were applied: column, InertSustain C18 column (150 mm × 4.6 i.d mm., 5 μm); mobile phase, 50 mM phosphate buffer (pH 2.2):CH3CN (80:20) (solvent A) and 50 mM phosphate buffer (pH 2.2):CH3CN (50:50) (solvent B), the gradient program, 0–20 min (solvent B: 0–25%), 20–25 min (solvent B: 25–100%), 25–36 min (solvent B: 100–25%); column temperature, 40 °C; detection, UV at 230 nm; flow rate, 1.0 mL/min. These cleaving effects were calculated as equivalents to benzoic acid.

[3] = tested on: AGE formation in human serum albumin (HSA)/glucose or fructose; test: Inhibitory effect on AGE formation (HSA with glucose or fructose, fluorescence); type: biochemical; conditions: 60 °C, 40 h, means ± SE (n = 3)
Experimental: The antiglycation effects of compounds isolated from TBE and several other related compounds were evaluated based on their AGE inhibitory activities as described previously, with slight modifications. Briefly, the sample solution was added to a reaction mixture containing 83.3 mM phosphate buffer (pH 7.2), 2.0 M glucose, 2.0 M fructose, 8.0 mg/mL human serum albumin (HSA), and distilled water (6:1:1:1:1, v/v). As a control, the vehicle was supplemented instead of the sample solution. For each blank, glucose or fructose was replaced with distilled water, and the total volume was set to 1000 μL. After incubation of the sample mixture at 60 °C for 40 h, the solutions were diluted 8-fold with distilled water, dispensed into a black microplate in 200 µL portions, and their fluorescence intensities were measured at excitation and emission wavelengths of 370 and 465 nm, respectively, using a Power Scan HT (DS Pharma Biomedical Co. Ltd., Osaka, Japan). The inhibitory rate was calculated as; Inhibitory rate (%) = 100 − [(S − SB)/(C − CB)] × 100(2) where S is the relative intensity of the sample solution, C is the relative intensity of the control solution, and SB and CB are the intensities of the glucose or fructose-omitted blank solutions. The experimental data are represented as IC50 (μM) values.

[4] = molecular target: α-glucosidase; parameters: method as in earlier work; conditions: cited from earlier work; for IC50: table lines marked with reference 8, means ± SE (n = 3), read-out: Inhibitory Effects on α-Glucosidase Activity IC50; for Inhibitory activity on α-glucosidase (in words): ellagitannin dimers isolated from T. japonica
[5] = HSA/fructose, read-out: Inhibitory Effects on AGE Formation IC50, Fructose
[6] = HSA/glucose, read-out: Inhibitory Effects on AGE Formation IC50, Glucose

Row | Compound | IC50 [1] | Crosslink-Cleaving Activities Relative Ratio [2] | IC50 [3, 5] | IC50 [3, 6] | IC50 [4] | α-Glucosidase inhibitory activity (in words) [1] | AGE cross-link cleaving activity (in words) [2] | Inhibitory activity on α-glucosidase (in words) [4]
1 | O=C(OC[C@H]1O[C@@H](OC(=O)c2cc(O)c(O)c(O)c2)[C@H](OC(=O)c2cc(O)c(O)c(O)c2)[C@@H](OC(=O)c2cc(O)c(O)c(O)c2)[C@@H]1OC(=O)c1cc(O)c(O)c(O)c1)c1cc(O)c(O)c(O)c1 [1,2,3,4,6-Penta-O-galloyl-β-D-glucose, reference compound] | 59 ± 0.4 µM | 97.9 ± 2.1 | 0.2 µM | 0.2 µM |  |  |  | 
2 | N=C(N)NN [Aminoguanidine, aminoguanidine hydrochloride, reference compound] |  |  | 801 ± 17.7 µM | 259 ± 6.8 µM |  |  |  | 
3 | O=C(OC[C@H]1O[C@@H](O)[C@H](OC(=O)c2cc(O)c(O)c(O)c2)[C@@H](O)[C@@H]1O)c1cc(O)c(O)c(O)c1 [Compound 1, 2,6-di-O-galloyl-β-D-glucose] |  | 77.4 ± 4.0 | 3.3 µM | 1.5 ± 0.1 µM |  |  |  | 
4 | O=C(O[C@@H]1O[C@H](CO)[C@@H](O)[C@H](OC(=O)c2cc(O)c(O)c(O)c2)[C@H]1OC(=O)c1cc(O)c(O)c(O)c1)c1cc(O)c(O)c(O)c1 [Compound 2, 1,2,3-tri-O-galloyl-β-D-glucose] |  | 190.5 ± 2.5 | 0.4 µM | 0.4 µM | > 100 µM |  |  | 
5 | O=C(OC[C@H]1O[C@@H](OC(=O)c2cc(O)c(O)c(O)c2)[C@H](OC(=O)c2cc(O)c(O)c(O)c2)[C@@H](O)[C@@H]1O)c1cc(O)c(O)c(O)c1 [Compound 3, 1,2,6-tri-O-galloyl-β-D-glucose] |  | 146.6 ± 12.6 | 0.4 µM | 0.3 µM | > 100 µM |  |  | 
6 | O=C(OC[C@H]1O[C@@H](O)[C@H](OC(=O)c2cc(O)c(O)c(O)c2)[C@@H](OC(=O)c2cc(O)c(O)c(O)c2)[C@@H]1O)c1cc(O)c(O)c(O)c1 [Compound 4, 2,3,6-tri-O-galloyl-β-D-glucose] |  |  | 1 µM | 0.3 µM |  |  |  | 
7 | O=C(OC[C@H]1O[C@@H](OC(=O)c2cc(O)c(O)c(O)c2)[C@H](OC(=O)c2cc(O)c(O)c(O)c2)[C@@H](OC(=O)c2cc(O)c(O)c(O)c2)[C@@H]1O)c1cc(O)c(O)c(O)c1 [Compound 5, 1,2,3,6-tetra-O-galloyl-β-D-glucose] |  | 209.0 ± 33.7 | 0.3 µM | 0.3 µM | > 100 µM |  |  | 
8 | O=C(OC[C@H]1O[C@@H](OC(=O)c2cc(O)c(O)c(O)c2)[C@H](OC(=O)c2cc(O)c(O)c(O)c2)[C@@H](O)[C@@H]1OC(=O)c1cc(O)c(O)c(O)c1)c1cc(O)c(O)c(O)c1 [Compound 6, 1,2,4,6-tetra-O-galloyl-β-D-glucose] | > 100 µM | 159.6 ± 12.7 | 0.3 µM | 0.3 µM |  |  |  | 
9 | O=C(OC1O[C@@H]2COC(=O)c3cc(O)c(O)c(O)c3-c3c(cc(O)c(O)c3O)C(=O)O[C@H]2[C@H](OC(=O)c2cc(O)c(O)c(O)c2)[C@H]1OC(=O)c1cc(O)c(O)c(O)c1)c1cc(O)c(O)c(O)c1 (stereo partly shown) [Compound 7, tellimagrandin II] |  | 230.8 ± 12.2 | 0.3 µM | 0.2 µM | > 100 µM |  |  | 
10 | O=C(O[C@@H]1O[C@@H]2COC(=O)c3cc(Oc4ccc(O)c(O)c4O)c(O)c(O)c3-c3c(cc(O)c(O)c3O)C(=O)O[C@H]2[C@H](OC(=O)c2cc(O)c(O)c(O)c2)[C@H]1OC(=O)c1cc(O)c(O)c(O)c1)c1cc(O)c(O)c(O)c1 [Compound 8, decarboxylated rugosin A] | 20.7 ± 0.1 µM | 233.0 ± 5.8 | 0.3 µM | 0.3 µM |  |  |  | 
11 | O=C(O[C@@H]1O[C@@H]2COC(=O)c3cc(Oc4c(C(=O)O[C@H]5C(O)O[C@@H]6COC(=O)c7cc(O)c(O)c(O)c7-c7c(cc(O)c(O)c7O)C(=O)O[C@H]6[C@@H]5OC(=O)c5cc(O)c(O)c(O)c5)cc(O)c(O)c4O)c(O)c(O)c3-c3c(cc(O)c(O)c3O)C(=O)O[C@H]2[C@H](OC(=O)c2cc(O)c(O)c(O)c2)[C@H]1OC(=O)c1cc(O)c(O)c(O)c1)c1cc(O)c(O)c(O)c1 (stereo partly shown) [Compound 9, camptothin B] | > 100 µM | 180.6 ± 4.2 | 0.2 µM | 0.1 µM |  |  |  | 
12 | COc1cc(C2Oc3c(OC)cc(CCCO)cc3C2COC2OC(CO)C(O)C(O)C2O)ccc1O [Compound 10, (7′S,8′R)-dihydrodehydrodiconiferyl alcohol-9′-O-β-D-glucoside] | > 100 µM | 16.7 ± 1.4 | > 1000 µM | > 500 µM |  | no inhibitory activity |  | 
13 | O=c1oc2c(Oc3ccc(O)c(O)c3O)c(O)cc3c(=O)oc4c(O)c(O)cc1c4c23 [Compound 11, rubuphenol] | > 100 µM | 514.8 ± 11.2 | 4.7 ± 0.3 µM | 2.4 µM |  | no inhibitory activity | remarkable activities | 
14 | O=c1oc2c(O)c(Oc3ccc(O)c(O)c3O)cc3c(=O)oc4c(O)c(O)cc1c4c23 [Compound 12, eschweilenol A] | > 100 µM | 484.5 ± 12.5 | 2.9 ± 0.1 µM | 2.4 µM |  | no inhibitory activity | remarkable activities | 
15 | COc1cc([C@H]2Oc3c(OC)cc(CCCO)cc3[C@@H]2CO)ccc1O [Compound 13] | > 100 µM | 17.2 ± 1.1 | > 1000 µM | > 500 µM |  | no inhibitory activity |  | 
16 | O=c1oc2c(O)c(O)cc3c(=O)oc4c(O)c(O)cc1c4c23 [Ellagic acid, reference compound] | > 100 µM | 11.4 ± 0.1 | 2.5 ± 0.1 µM | 1.8 ± 0.1 µM |  | little effect |  | 
17 | O=C(O)c1cc(O)c(O)c(O)c1 [Gallic acid] |  | 720.1 ± 54.1 | 27 ± 2.6 µM | 14.7 ± 2 µM | > 100 µM | little effect | remarkable activities | 
18 | O=C(C[n+]1ccsc1)c1ccccc1.[Br-] [N-Phenacylthiazolium bromide (PTB), N-phenacylthiazolium bromide, reference compound] |  | 100 |  |  |  |  |  | 
19 | O=C(O[C@@H]1O[C@@H]2COC(=O)c3cc(Oc4c(C(=O)O[C@@H]5O[C@@H]6COC(=O)c7cc(O)c(O)c(O)c7-c7c(cc(O)c(O)c7O)C(=O)O[C@H]6[C@H](OC(=O)c6cc(O)c(O)c(O)c6)[C@H]5OC(=O)c5cc(O)c(O)c(O)c5)cc(O)c(O)c4O)c(O)c(O)c3-c3c(cc(O)c(O)c3O)C(=O)O[C@H]2[C@H](OC(=O)c2cc(O)c(O)c(O)c2)[C@H]1OC(=O)c1cc(O)c(O)c(O)c1)c1cc(O)c(O)c(O)c1 [rugosin D, reference compound] |  |  |  |  |  |  |  | comparable to that of acarbose
20 | Cornusiin G [reference compound] |  |  |  |  | 6.3 ± 0.1 µM |  |  | comparable to that of acarbose
